Experimental findings from PubChem BioAssay (NCI) are described below.

“And” between values parts separate entries of the source, which are not always exact repeats. Equal entries are not always repeated.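 Protocol summary: plate cells (96-well), add compound at 5 concentrations, incubate 48 h, interpolate endpoints linearly. GI50 marks 50% less growth. TGI marks complete inhibition of growth.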 Where a SMILES comes first, the peptide text is derived from it. [ ]: non-standard residue; d: D form. The star is where a group is joined. NMeF = CN[C@@H](Cc1ccccc1)C(=O)O; NMeV = CN[C@H](C(=O)O)C(C)C; Boc = CC(C)(C)OC(=O)*; OBn = c1ccc(CO*)cc1

Some test systems named below: TK-10 renal; SN12C renal; T-47D breast; HT29 colon; MDA-MB-231 breast; UACC-62 melanoma; SW-620 colon; HS 578T breast; MDA-MB-435; OVCAR-8 ovarian.
Assay in all cases: NCI anticancer screen, dose series, 48 h

As to `Brc1ccccc1C=NC12CC3CC(CC(C3)C1)C2`, the TGI in the assay with TK-10 renal was more than 100 µM; in the assay on SN12C renal, more than 63.1 µM; in the assay on T-47D breast it was more than 100 µM; with HT29 colon it was more than 100 µM; with MDA-MB-231 breast, more than 100 µM; with UACC-62 melanoma, more than 100 µM. Further, the TGI with SW-620 colon, in the assay on HS 578T breast, in the assay on MDA-MB-435 and in the assay on OVCAR-8 ovarian was more than 100 µM throughout.
With `CC(C)[C@@H](C(=O)N1CCC[C@H]1C(=O)OCc1ccccc1)N(C)C(=O)[C@H](C(C)C)N(C)C(=O)[C@H](Cc1ccccc1)N(C)C(=O)[C@H](NC(=O)OC(C)(C)C)C(C)C` (Boc-[dV][NMeF][NMeV][NMeV]P-OBn), the TGI in the assay with TK-10 renal was more than 100 µM; in the assay on SN12C renal, more than 100 µM; in the assay on T-47D breast it was more than 50 µM; in the assay on HT29 colon, more than 100 µM; in the assay on MDA-MB-231 breast, more than 50 µM; in the assay on UACC-62 melanoma, more than 100 µM. The TGI is > 50 µM and 26.7 µM in the assay on SW-620 colon; more than 50 µM in the assay on HS 578T breast; more than 50 µM in the assay on MDA-MB-435; more than 100 µM with OVCAR-8 ovarian. Further, the GI50 in the assay on SW-620 colon is 12.5 µM.
For the compound `CC(=O)OC1Oc2cc(C)c(C)cc2-c2oc(=O)c(-c3ccc(F)cc3)cc21` (stereo unspecified), the GI50 in the assay with TK-10 renal was 17.1 µM; with SN12C renal, 9.78 µM; in the assay on T-47D breast it was 2.43 µM; with HT29 colon, 2.7 µM; in the assay on MDA-MB-231 breast, 8.34 µM; with UACC-62 melanoma it was 3.92 µM. Moreover, the GI50 is 3.87 µM in the assay on SW-620 colon, 8.56 µM in the assay on HS 578T breast, 1.59 µM with MDA-MB-435 and 6.67 µM in the assay on OVCAR-8 ovarian. The TGI in the assay with TK-10 renal was 71.4 µM; in the assay on SN12C renal it was more than 100 µM; with T-47D breast, 17.1 µM; in the assay on HT29 colon it was 12.1 µM; in the assay on MDA-MB-231 breast it was 65 µM; in the assay on UACC-62 melanoma it was 76.3 µM. Also, the TGI in the assay with SW-620 colon is 28.8 µM; with HS 578T breast, 68.6 µM; with MDA-MB-435 it was 4.21 µM; in the assay with OVCAR-8 ovarian, more than 100 µM.
Regarding `COC(=O)/C(=N\NC(=S)NN)C(C(=O)OC)C(=O)C(=O)Nc1cccc(C(F)(F)F)c1` (stereo unspecified), the TGI in the assay on TK-10 renal, in the assay on SN12C renal, in the assay with T-47D breast, in the assay with HT29 colon, in the assay with MDA-MB-231 breast and in the assay with UACC-62 melanoma was more than 100 µM in each case. Further, the TGI in the assay with SW-620 colon, in the assay with HS 578T breast, in the assay with MDA-MB-435 and in the assay on OVCAR-8 ovarian was more than 100 µM in each case.
On to `Cc1[nH]nc2ccc3nc(-c4ccc5[nH]ncc5c4)c4c(c3c12)CCCC4`, for which the GI50 in the assay with TK-10 renal was 1.12 µM; in the assay with SN12C renal it was 2.09 µM; in the assay on T-47D breast, 1.14 µM; in the assay on HT29 colon, 1.51 µM; in the assay with MDA-MB-231 breast it was 1.71 µM; with UACC-62 melanoma, 0.717 µM. Further, the GI50 is 0.494 µM in the assay on SW-620 colon, 1.34 µM in the assay with HS 578T breast, 1.23 µM with MDA-MB-435 and 1.15 µM in the assay on OVCAR-8 ovarian. The TGI with TK-10 renal came out at 20 µM; in the assay on SN12C renal, 12.7 µM; in the assay on T-47D breast it was 8.22 µM; with HT29 colon it was 12.5 µM; in the assay on MDA-MB-231 breast, 12.7 µM; with UACC-62 melanoma it was 6.13 µM. Besides, the TGI in the assay with SW-620 colon worked out at 8.79 µM; in the assay with HS 578T breast it was 12.5 µM; in the assay on MDA-MB-435, 12.9 µM; in the assay on OVCAR-8 ovarian it was 13.2 µM.
On to `Cc1nn(-c2ccccc2)c2nc3c(nc12)C1=NCCN1C(c1ccc(Cl)cc1)N3` (stereo unspecified), for which the GI50 in the assay with TK-10 renal was 2.93 µM; with SN12C renal, 11.4 µM; with T-47D breast, 1.74 µM; with HT29 colon, 2.5 µM; with MDA-MB-231 breast it was 1.81 µM; in the assay with UACC-62 melanoma it was 1.95 µM. In addition, the GI50 was 1.9 µM with SW-620 colon, 3.1 µM with HS 578T breast, 1.85 µM in the assay on MDA-MB-435 and 6.29 µM in the assay on OVCAR-8 ovarian. The TGI with TK-10 renal was 7.18 µM; with SN12C renal, 25.2 µM; in the assay on T-47D breast it was 3.42 µM; in the assay on HT29 colon it was 5.96 µM; in the assay with MDA-MB-231 breast, 4.95 µM; in the assay on UACC-62 melanoma it was 3.8 µM. In addition, the TGI came out at 3.96 µM in the assay with SW-620 colon, 12.8 µM in the assay with HS 578T breast, 3.74 µM in the assay with MDA-MB-435 and 21 µM with OVCAR-8 ovarian.
As for `O=C1NC(c2c(Cl)cccc2Cl)Nc2ccccc21` (stereo unspecified), the TGI with TK-10 renal, in the assay on SN12C renal, in the assay with T-47D breast, in the assay on HT29 colon, in the assay with MDA-MB-231 breast and with UACC-62 melanoma was more than 100 µM each time. Further, the TGI in the assay with SW-620 colon is more than 100 µM; with HS 578T breast it was 74.1 µM; in the assay on MDA-MB-435, 33 µM; in the assay with OVCAR-8 ovarian it was more than 100 µM.
As for `CCn1c(-c2nonc2N)nc2cncc(C(=O)NCCNC)c21`, the GI50 in the assay with TK-10 renal is 0.612 µM; in the assay with SN12C renal, more than 25 µM; in the assay on T-47D breast, 16.7 µM; in the assay on HT29 colon, 0.817 µM; in the assay with MDA-MB-231 breast it was more than 25 µM; in the assay with UACC-62 melanoma, 13.6 µM. In addition, the GI50 in the assay with SW-620 colon was 4.07 µM; with HS 578T breast, 0.36 µM; in the assay with MDA-MB-435, 2.64 µM; in the assay on OVCAR-8 ovarian, 15.3 µM. In addition, the TGI is 4.64 µM in the assay on TK-10 renal; more than 25 µM with SN12C renal; more than 25 µM in the assay with T-47D breast; more than 25 µM with HT29 colon; more than 25 µM with MDA-MB-231 breast; more than 25 µM in the assay on UACC-62 melanoma. Further, the TGI in the assay with SW-620 colon is more than 25 µM; in the assay with HS 578T breast, more than 6.59 µM; with MDA-MB-435, more than 25 µM; in the assay on OVCAR-8 ovarian, more than 25 µM.
As to `CCC(c1ccc2cc(O)ccc2c1)C(C)(C)C(=O)O` (stereo unspecified), the TGI in the assay on TK-10 renal, in the assay on SN12C renal, in the assay with T-47D breast, with HT29 colon, in the assay on MDA-MB-231 breast and in the assay with UACC-62 melanoma was more than 100 µM each time. The TGI with SW-620 colon, with HS 578T breast, in the assay with MDA-MB-435 and in the assay on OVCAR-8 ovarian was more than 100 µM each time.
On to `C=C(C)[C@@H]1CC[C@]2(C(=O)O)CC[C@]3(C)[C@H](CC[C@@H]4[C@@]5(C)C/C(=C/c6ccc(OC)cc6)C(=O)C(C)(C)[C@@H]5CC[C@]43C)[C@@H]12`, for which the GI50 was 2.6 µM with TK-10 renal; 2.07 µM in the assay on SN12C renal; 2.84 µM in the assay on T-47D breast; 3.09 µM in the assay with HT29 colon; 2.32 µM with MDA-MB-231 breast; 1.44 µM in the assay with UACC-62 melanoma. Also, the GI50 in the assay with SW-620 colon is 1.95 µM; in the assay with HS 578T breast it was 2.65 µM; in the assay with MDA-MB-435 it was 1.84 µM; with OVCAR-8 ovarian it was 3.16 µM. The TGI is 20.7 µM with TK-10 renal; 5.9 µM with SN12C renal; 26.7 µM with T-47D breast; 10.2 µM in the assay on HT29 colon; 7.78 µM with MDA-MB-231 breast; 3.13 µM with UACC-62 melanoma. Further, the TGI in the assay with SW-620 colon amounted to 4.61 µM; in the assay with HS 578T breast it was 9.03 µM; with MDA-MB-435 it was 4.02 µM; in the assay on OVCAR-8 ovarian, 33.1 µM.
In the case of `COc1cc(C2CC(c3ccccc3)=NN2C(C)=O)cc(OC)c1OC` (stereo unspecified), the GI50 is more than 46.9 µM in the assay on TK-10 renal; 5.23 µM in the assay with SN12C renal; 5.33 µM with T-47D breast; 2.57 µM in the assay on HT29 colon; 7.68 µM with MDA-MB-231 breast; 4.2 µM in the assay on UACC-62 melanoma. Also, the GI50 was 3.04 µM with SW-620 colon, 2.57 µM in the assay on HS 578T breast, 0.428 µM with MDA-MB-435 and 7.43 µM in the assay with OVCAR-8 ovarian. Moreover, the TGI in the assay with TK-10 renal, with SN12C renal, in the assay with T-47D breast, in the assay on HT29 colon, with MDA-MB-231 breast and in the assay on UACC-62 melanoma was more than 100 µM in each case. Besides, the TGI in the assay with SW-620 colon is more than 100 µM; in the assay on HS 578T breast, 34.6 µM; in the assay with MDA-MB-435, 8.27 µM; with OVCAR-8 ovarian it was more than 100 µM.
In the case of `CC(C(=O)O)/C(=C\c1ccc2c(c1)OCO2)C(=O)O` (stereo unspecified), the TGI with TK-10 renal was more than 100 µM; in the assay with SN12C renal, more than 100 µM; in the assay with T-47D breast, more than 100 µM; with HT29 colon, more than 82.2 µM; with MDA-MB-231 breast, more than 100 µM; in the assay with UACC-62 melanoma it was more than 100 µM. Further, the TGI in the assay with SW-620 colon, in the assay on HS 578T breast, in the assay with MDA-MB-435 and in the assay on OVCAR-8 ovarian was more than 100 µM in each case.
For `CC1OC(n2c3ccccc3c3c4c(c5c6ccccc6[nH]c5c32)C(=O)N(CCN2CCOCC2)C4=O)CC(O)C1O` (stereo unspecified), the GI50 was 6.33 µM with TK-10 renal; 1.75 µM in the assay on SN12C renal; 1.37 µM with T-47D breast; 1.92 µM in the assay on HT29 colon; 6.63 µM with MDA-MB-231 breast; 1.03 µM with UACC-62 melanoma. For the same compound, the GI50 with SW-620 colon is 1.07 µM; in the assay on HS 578T breast it was 6.32 µM; with MDA-MB-435, 2.71 µM; in the assay with OVCAR-8 ovarian it was 2.74 µM. The TGI turned out to be 13.8 µM in the assay with TK-10 renal; 7.47 µM in the assay on SN12C renal; 10.4 µM with T-47D breast; 9.91 µM in the assay with HT29 colon; 18.9 µM in the assay on MDA-MB-231 breast; 6.06 µM in the assay on UACC-62 melanoma. Moreover, the TGI with SW-620 colon turned out to be 8.78 µM; in the assay on HS 578T breast it was 16.2 µM; in the assay with MDA-MB-435 it was 9.59 µM; with OVCAR-8 ovarian it was 16.5 µM.
